System: RAW264.7
Test: Antiinflammatory activity in mouse RAW264.7 cells assessed as inhibition of LPS-induced TNFalpha production at 100 uM treated 4 hrs before LPS challenge measured after overnight incubation by ELISA
Format: functional

Row | SMILES | inhibition at 100 µM [%]
1 | C[C@H]1C[C@@H](O)[C@]23C[C@H](CC[C@]12O)C(C)(C)[C@]3(C)O | 35.4
2 | Cc1ccc(S(=O)(=O)N[C@@H](Cc2ccccc2)C(=O)CCl)cc1 [TPCK] | 60.6
